The values below come from article PMC10507085, “Pharmacological inhibition of TBK1/IKKε blunts immunopathology in a murine model of SARS-CoV-2 infection” (Nature Communications, 2023).

Among the targets are MATK (Homo sapiens, UniProt P42679); MAPK3 (Homo sapiens, UniProt P27361); ULK2 (Homo sapiens, UniProt Q8IYT8); PNCK (Homo sapiens, UniProt Q6P2M8); AURKB (Homo sapiens, UniProt Q96GD4); FGFR4 (Homo sapiens, UniProt P22455); MUSK (Homo sapiens, UniProt O15146); CAMK2B (Homo sapiens, UniProt Q13554); PRKACB (Homo sapiens, UniProt P22694); BMP2K (Homo sapiens, UniProt Q9NSY1); MAP3K5 (Homo sapiens, UniProt Q99683); STK11 (Homo sapiens, UniProt Q15831); YES1 (Homo sapiens, UniProt P07947); NEK11 (Homo sapiens, UniProt Q8NG66); BRSK1 (Homo sapiens, UniProt Q8TDC3); NEK6 (Homo sapiens, UniProt Q9HC98); PIM1 (Homo sapiens, UniProt P11309); EPHB6 (Homo sapiens, UniProt O15197); PAK1 (Homo sapiens, UniProt Q13153).

Common to all, as to assay: biochemical
Holding throughout (parameters): KINOMEscan competition binding, DNA-tagged kinase against immobilised ligand, qPCR read-out
Common to all, as to settings: read-out: Percent Control

Another experiment has as its target T1, ABL1-nonphosphorylated (Homo sapiens, UniProt P00519).
T1 construct: nonphosphorylated

Sequence of MAP3K5 (Q99683 whole entry): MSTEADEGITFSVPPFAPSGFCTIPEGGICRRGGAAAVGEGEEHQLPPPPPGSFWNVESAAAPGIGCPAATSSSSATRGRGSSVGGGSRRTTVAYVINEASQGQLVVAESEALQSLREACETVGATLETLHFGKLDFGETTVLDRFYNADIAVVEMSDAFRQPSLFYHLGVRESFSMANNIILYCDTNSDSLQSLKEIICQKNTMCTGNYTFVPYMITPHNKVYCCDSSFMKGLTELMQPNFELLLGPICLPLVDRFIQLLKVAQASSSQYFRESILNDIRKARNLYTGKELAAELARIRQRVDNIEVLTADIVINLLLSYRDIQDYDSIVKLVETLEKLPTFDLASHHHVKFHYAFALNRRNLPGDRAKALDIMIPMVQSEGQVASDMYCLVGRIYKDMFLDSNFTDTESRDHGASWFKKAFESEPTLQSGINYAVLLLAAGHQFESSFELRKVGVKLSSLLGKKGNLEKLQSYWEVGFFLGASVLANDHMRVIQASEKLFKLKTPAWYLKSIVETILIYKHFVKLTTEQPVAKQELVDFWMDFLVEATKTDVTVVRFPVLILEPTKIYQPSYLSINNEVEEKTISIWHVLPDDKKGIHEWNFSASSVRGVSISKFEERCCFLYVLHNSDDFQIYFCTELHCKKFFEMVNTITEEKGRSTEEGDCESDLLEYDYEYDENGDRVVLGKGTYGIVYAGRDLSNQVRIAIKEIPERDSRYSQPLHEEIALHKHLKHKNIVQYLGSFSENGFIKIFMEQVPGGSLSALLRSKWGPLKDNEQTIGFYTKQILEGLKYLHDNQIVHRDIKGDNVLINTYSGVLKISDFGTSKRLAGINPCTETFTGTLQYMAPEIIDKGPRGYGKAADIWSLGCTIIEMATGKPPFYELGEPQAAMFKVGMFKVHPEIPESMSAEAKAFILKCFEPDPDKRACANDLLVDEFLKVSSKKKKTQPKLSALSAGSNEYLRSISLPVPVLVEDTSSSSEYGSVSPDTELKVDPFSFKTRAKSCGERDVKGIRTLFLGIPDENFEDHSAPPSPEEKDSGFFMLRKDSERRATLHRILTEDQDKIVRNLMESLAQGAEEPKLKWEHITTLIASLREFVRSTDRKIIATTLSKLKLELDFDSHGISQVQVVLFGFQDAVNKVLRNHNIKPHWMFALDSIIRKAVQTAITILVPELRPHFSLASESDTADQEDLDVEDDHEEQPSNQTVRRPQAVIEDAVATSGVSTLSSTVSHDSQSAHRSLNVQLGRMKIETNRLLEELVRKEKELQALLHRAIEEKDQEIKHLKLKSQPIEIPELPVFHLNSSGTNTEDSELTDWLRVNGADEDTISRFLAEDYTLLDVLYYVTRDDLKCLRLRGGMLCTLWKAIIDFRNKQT
Sequence of NEK6 (Q9HC98 whole entry): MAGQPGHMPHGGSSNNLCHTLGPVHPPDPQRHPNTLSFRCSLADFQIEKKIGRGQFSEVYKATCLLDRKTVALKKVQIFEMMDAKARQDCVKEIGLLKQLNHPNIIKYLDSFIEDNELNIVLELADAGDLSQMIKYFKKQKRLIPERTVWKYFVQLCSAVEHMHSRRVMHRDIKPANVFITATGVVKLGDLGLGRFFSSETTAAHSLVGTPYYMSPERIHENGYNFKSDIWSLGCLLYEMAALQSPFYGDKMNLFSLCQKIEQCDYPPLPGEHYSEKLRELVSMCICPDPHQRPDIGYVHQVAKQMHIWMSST
Sequence of YES1 (P07947 whole entry): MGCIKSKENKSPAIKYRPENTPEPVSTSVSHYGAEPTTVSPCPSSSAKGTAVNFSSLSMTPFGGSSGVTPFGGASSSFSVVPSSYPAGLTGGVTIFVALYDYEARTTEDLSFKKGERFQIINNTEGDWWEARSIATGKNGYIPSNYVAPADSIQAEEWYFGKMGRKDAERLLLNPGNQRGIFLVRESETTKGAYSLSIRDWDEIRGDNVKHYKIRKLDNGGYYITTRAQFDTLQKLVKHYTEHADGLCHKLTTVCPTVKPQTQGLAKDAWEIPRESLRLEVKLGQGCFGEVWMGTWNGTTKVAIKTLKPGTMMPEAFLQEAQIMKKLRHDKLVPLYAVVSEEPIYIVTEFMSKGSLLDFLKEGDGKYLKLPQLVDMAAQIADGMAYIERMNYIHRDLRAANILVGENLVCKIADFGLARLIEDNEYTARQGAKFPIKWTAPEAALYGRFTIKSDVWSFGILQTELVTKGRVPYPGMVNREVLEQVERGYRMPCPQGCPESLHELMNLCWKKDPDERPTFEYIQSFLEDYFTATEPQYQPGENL
Sequence of BMP2K (Q9NSY1 whole entry): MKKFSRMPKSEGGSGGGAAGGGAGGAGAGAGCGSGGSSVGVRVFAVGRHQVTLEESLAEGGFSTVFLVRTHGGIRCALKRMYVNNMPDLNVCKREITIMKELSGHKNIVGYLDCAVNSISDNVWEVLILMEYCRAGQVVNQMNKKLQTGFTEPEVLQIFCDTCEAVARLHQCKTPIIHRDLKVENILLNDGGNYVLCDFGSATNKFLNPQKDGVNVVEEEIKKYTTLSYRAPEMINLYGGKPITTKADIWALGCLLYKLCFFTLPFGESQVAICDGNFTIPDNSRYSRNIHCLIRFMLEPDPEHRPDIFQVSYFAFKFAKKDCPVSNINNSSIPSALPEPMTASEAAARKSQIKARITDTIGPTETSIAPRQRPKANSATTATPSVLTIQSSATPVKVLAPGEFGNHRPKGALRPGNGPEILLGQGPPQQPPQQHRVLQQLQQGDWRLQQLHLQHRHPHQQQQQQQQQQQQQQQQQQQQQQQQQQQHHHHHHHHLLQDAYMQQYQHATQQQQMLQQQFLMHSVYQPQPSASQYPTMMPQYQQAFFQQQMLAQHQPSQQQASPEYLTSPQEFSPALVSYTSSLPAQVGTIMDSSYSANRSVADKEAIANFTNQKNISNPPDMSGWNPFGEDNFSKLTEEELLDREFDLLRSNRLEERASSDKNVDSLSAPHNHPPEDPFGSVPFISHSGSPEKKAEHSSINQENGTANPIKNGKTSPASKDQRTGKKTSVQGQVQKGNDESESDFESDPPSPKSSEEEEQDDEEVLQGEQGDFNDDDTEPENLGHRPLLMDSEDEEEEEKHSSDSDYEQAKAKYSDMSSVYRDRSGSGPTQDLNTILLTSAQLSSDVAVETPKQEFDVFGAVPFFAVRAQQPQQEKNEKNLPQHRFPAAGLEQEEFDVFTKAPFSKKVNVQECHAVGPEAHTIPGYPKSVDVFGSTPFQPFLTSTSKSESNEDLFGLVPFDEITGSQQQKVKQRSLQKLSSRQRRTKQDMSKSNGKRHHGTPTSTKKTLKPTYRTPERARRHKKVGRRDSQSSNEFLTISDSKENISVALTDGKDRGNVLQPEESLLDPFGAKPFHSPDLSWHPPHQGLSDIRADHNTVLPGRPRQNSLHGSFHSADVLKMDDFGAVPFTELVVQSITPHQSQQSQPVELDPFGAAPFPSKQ
Sequence of FGFR4 (P22455 whole entry): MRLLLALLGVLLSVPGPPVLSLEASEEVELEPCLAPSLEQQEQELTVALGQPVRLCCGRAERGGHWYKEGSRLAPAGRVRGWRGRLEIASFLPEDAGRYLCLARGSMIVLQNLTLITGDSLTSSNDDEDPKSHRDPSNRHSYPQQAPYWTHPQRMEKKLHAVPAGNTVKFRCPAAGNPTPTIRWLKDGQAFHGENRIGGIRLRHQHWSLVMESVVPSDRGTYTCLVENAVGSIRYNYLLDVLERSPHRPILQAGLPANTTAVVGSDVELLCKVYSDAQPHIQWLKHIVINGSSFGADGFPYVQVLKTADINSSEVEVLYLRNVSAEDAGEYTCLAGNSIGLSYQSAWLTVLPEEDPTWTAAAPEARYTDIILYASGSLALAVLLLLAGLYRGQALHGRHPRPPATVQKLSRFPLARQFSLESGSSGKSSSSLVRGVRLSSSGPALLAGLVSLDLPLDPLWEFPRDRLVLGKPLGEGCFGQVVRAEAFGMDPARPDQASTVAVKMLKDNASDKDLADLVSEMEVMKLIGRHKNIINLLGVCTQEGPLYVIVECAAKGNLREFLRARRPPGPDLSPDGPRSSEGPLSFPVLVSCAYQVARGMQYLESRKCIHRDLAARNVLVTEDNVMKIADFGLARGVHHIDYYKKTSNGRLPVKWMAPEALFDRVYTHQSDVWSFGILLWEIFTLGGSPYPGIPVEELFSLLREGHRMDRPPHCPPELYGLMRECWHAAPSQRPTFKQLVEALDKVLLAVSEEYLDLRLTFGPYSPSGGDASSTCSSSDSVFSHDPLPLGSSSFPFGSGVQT
Sequence of MATK (P42679 whole entry): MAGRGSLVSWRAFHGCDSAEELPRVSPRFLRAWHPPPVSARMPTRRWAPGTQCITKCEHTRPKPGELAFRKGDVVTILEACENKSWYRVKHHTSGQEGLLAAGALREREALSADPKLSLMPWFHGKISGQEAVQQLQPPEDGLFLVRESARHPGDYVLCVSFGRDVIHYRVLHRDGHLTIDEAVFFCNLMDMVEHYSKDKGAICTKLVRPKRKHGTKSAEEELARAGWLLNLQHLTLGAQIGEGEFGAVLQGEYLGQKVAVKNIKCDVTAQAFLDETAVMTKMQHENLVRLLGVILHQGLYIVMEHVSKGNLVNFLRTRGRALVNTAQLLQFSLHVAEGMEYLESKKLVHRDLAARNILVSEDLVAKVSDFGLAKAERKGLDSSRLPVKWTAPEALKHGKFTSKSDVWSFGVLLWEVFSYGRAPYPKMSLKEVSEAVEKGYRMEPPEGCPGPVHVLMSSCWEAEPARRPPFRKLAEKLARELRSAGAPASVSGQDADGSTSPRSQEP
Sequence of PNCK (Q6P2M8 whole entry): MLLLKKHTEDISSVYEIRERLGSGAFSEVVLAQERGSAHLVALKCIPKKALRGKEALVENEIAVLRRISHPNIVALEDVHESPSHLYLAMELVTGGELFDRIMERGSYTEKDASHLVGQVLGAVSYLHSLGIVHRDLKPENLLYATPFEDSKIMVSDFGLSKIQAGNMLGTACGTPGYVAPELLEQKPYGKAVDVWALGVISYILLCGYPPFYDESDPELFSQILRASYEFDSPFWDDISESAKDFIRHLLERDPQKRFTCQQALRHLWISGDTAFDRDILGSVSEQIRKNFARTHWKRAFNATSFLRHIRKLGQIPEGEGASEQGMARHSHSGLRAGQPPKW

With `Oc1ccc(C2=Cc3ccc(O)cc3OC2)cc1` [compound 1, idronoxil], the remaining binding at 10 µM stood at 61% at MATK; 94% on MAPK3; 100% on ULK2; 32% at ABL1-nonphosphorylated; 74% on PNCK; 12% on AURKB. Further, the remaining binding at 10 µM on FGFR4 is 95%; on MUSK, 89%; on CAMK2B it was 83%; at PRKACB it was 88%; on BMP2K, 86%; on MAP3K5, 92%. The remaining binding at 10 µM on STK11 is 81%; at YES1, 68%; on NEK11, 61%; at BRSK1, 76%; on NEK6 it was 100%; on PIM1 it was 34%. In addition, the values for the remaining binding at 10 µM at EPHB6 and at PAK1 were 53% and 60%, respectively.
